Tests used:
[1] = Assay C: Hepatocyte clearance; assay type: in vitro ADME, human; details: hepatocyte suspension, 5% species serum, 1 μM test compound, six hours
Procedure: Evaluation of Hepatocyte Clearance Assay C: Hepatocyte Clearance
The metabolic degradation of the test compound is assayed in a hepatocyte suspension. Hepatocytes (cryopreserved) are incubated in Dulbecco's modified eagle medium (supplemented with 3.5 μg glucagon/500 mL, 2.5 mg insulin/500 mL and 3.75 mg/500 mL hydrocortison) containing 5% species serum.
Following a 30 min preincubation in an incubator (37° C., 10% CO2) 5 μl of test compound solution (80 μM; from 2 mM in DMSO stock solution diluted 1:25 with medium) are added into 395 μl hepatocyte suspension (cell density in the range 0.25-5 Mio cells/mL depending on the species, typically 1 Mio cells/mL; final concentration of test compound 1 μM, final DMSO concentration 0.05%).
The cells are incubated for six hours (incubator, orbital shaker) and samples (25 μl) are taken at 0, 0.5, 1, 2, 4 and 6 hours. Samples are transferred into acetonitrile and pelleted by centrifugation (5 min). The supernatant is transferred to a new 96-deepwell plate, evaporated under nitrogen and resuspended.
Decline of parent compound is analyzed by HPLC-MS/MS
CLint is calculated as follows CL_[…]=Dose/AUC=(C0/CD)/(AUD+clast/k)×1000/60. C0: initial concentration in the incubation [μM], CD: cell density of vital cells [10e6 cells/mL], AUD: area under the data [μM×h], clast: concentration of last data point [μM], k: slope of the regression line for parent decline [h−1].
The calculated in vitro hepatic intrinsic clearance can be scaled up to the intrinsic in vivo hepatic Clearance and used to predict hepatic in vivo blood clearance (CL) by the use of a liver model (well stirred model).

human TRPA1 ion channel = human TRPA1 ion channel (Homo sapiens (Human), UniProt O75762); test: Assay A: TRPA1 assay (FLIPR calcium assay, AITC agonism, HEK293 cells over-expressing human TRPA1); assay type: cell-based; details: AITC 10 μM, FLIPRtetra, AUC after AITC addition, read-out: hTRPA1 IC50
Procedure: A human HEK293 cell line over-expressing the human TRPA1 ion channel (Perkin Elmer, Product No. AX-004-PCL) is used as a test system for compound efficacy and potency. Compound activity is determined by measuring the effect of compounds on intracellular calcium concentration induced by AITC (Allylisothiocyanat) agonism in a FLIPRtetra system (Molecular Devices).
Cells are grown in culture medium (MEM/EBSS medium with 10% FCS and 0.4 mg/ML Geneticin). […] For sub-culturing cells are detached from flasks by Versene. At the day before the assay, cells are detached, washed twice with medium (MEM/EBSS medium with 10% FCS) and 20000 cells in 20 μl/well are seeded to Poly D-Lysin biocoated 384-well plates (black, clear bottom, Cat. 356697) from Corning. Plates are incubated for 24 hours at 37° C./5% CO2 before use in the assay.
The test compounds are dissolved in 100% DMSO at a concentration of 10 mM and in a first step diluted in DMSO to a concentration of 5 mM, followed by serial dilution steps in 100% DMSO. Dilution factor and number of dilution steps may vary according to needs. Typically 8 different concentrations by 1:5 dilutions are prepared, further intermediate dilutions (1:20) of the substances are carried out with HBSS/HEPES buffer (1×HEPES, Cat. 14065 from Gibco, 20 mM HEPES, Cat. 83264 from SIGMA, 0.1% BSA Cat. 11926 from Invitrogen, pH 7.4
At the assay day cells are washed 3× with assay puffer, 20 μL buffer remaining in the wells after washing. 10 μL Ca6 kit (Cat. R8191 MolecularDevices) loading buffer in HBSS/HEPES is added to the cells and the plates are incubated with lid for 120 minutes at 37°/5% CO2. 10 μL of compound or controls in HBSS/HEPES buffer/5% DMSO from the intermediate dilution plate are carefully added to the wells. […] Finally 10 μL of the agonist AITC 50 μM dissolved in HBSS/HEPES buffer/0.05% DMSO (final concentration 10 μM) is added to the wells followed by an additional read on the FLIPRtetra device for 10 minutes. The area under the signal curve (AUC) after AITC addition is used for IC50/% inhibition calculations
Each assay microtiter plate contains wells with vehicle (1% DMSO) controls instead of compound as controls for AITC induced luminescence (100% CTL; high controls) and wells with vehicle controls without AITC as controls for non-specific changes in luminescence (0% CTL; low controls).
The analysis of the data is performed by the calculation of the area under signal curve of the individual wells. Based on this values the % value for the measurement of each substance concentration is calculated (AUC(sample)−AUC(low))*100/(AUC(high)−AUC(low)) using MegaLab software (in house development). The IC50 values are calculated from the % control values using MegaLab software. Calculation: [y=(a−d)/(1+(x/c)^B)+d], a=low value, d=high value; x=conc M; c=IC50 M; b=hill; y=% ctrl

[2] = Assay B: Microsomal clearance; assay type: in vitro ADME; details: pooled liver microsomes, 1 μM test compound, 37° C.; Tables 5 and 6 of the same assay are headed human LM [% Qh]
Procedure: Evaluation of Microsomal Clearance Assay B: Microsomal Clearance:
The metabolic degradation of the test compound is assayed at 37° C. with pooled liver microsomes. The final incubation volume of 100 μl per time point contains TRIS buffer pH 7.6 at RT (0.1 M), magnesium chloride (5 mM), microsomal protein (1 mg/ml) and the test compound at a final concentration of 1 μM.
Following a short preincubation period at 37° C., the reactions are initiated by addition of beta-nicotinamide adenine dinucleotide phosphate, reduced form (NADPH, 1 mM) and terminated by transferring an aliquot into solvent after different time points (0, 5, 15, 30, 60 min). Additionally, the NADPH-independent degradation is monitored in incubations without NADPH, terminated at the last time point. The [%] remaining test compound after NADPH independent incubation is reflected by the parameter c(control) (metabolic stability). The quenched incubations are pelleted by centrifugation (10000 g, 5 min).
An aliquot of the supernatant is assayed by LC-MS/MS for the amount of parent compound. The half-life (t1/2 INVITRO) is determined by the slope of the semilogarithmic plot of the concentration-time profile.

Chain of human TRPA1 ion channel (O75762 whole entry): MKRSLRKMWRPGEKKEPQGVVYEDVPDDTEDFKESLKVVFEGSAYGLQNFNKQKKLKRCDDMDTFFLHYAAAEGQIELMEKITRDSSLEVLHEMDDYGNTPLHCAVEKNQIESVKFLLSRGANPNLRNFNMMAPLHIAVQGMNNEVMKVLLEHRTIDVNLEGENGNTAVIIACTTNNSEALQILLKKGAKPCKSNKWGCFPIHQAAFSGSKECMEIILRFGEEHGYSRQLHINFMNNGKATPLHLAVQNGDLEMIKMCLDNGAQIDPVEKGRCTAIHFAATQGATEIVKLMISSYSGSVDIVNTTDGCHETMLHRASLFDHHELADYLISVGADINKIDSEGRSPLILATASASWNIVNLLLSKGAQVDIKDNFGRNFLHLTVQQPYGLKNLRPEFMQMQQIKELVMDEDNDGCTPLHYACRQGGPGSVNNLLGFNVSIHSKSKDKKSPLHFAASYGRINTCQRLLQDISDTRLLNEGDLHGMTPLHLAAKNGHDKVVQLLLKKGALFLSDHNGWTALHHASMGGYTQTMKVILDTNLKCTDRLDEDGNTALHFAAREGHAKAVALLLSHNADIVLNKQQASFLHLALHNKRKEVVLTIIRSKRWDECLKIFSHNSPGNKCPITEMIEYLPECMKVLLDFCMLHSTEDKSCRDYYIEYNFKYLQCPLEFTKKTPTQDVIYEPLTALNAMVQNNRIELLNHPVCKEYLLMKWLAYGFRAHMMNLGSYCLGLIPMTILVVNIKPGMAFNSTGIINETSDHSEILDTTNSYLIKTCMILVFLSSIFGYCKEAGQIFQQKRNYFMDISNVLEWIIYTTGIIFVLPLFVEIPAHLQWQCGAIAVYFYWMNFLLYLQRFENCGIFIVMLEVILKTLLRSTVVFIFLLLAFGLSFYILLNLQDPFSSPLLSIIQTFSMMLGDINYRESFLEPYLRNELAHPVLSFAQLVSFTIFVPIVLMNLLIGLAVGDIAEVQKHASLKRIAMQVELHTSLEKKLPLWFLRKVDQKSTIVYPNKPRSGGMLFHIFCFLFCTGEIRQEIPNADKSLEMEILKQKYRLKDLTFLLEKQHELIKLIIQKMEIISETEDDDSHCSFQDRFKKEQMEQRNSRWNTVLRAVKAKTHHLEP

Structure (SMILES)	human Hepatocytes [1] [% Qh]	IC50 (human TRPA1 ion channel) [nM]	Assay B result (column head not printed in Table 4) [2] [%]
Cc1oc2ncn(Cc3nnn(C[C@H](O)c4cc5ccc(F)cc5s4)n3)c(=O)c2c1C(N)=O [Example 4]	30	10	< 23
Cc1oc2ncn(Cc3nnn(C[C@H](O)c4ccc(Cl)s4)n3)c(=O)c2c1C(N)=O [Example 7]	15	20	< 23
Cc1oc2ncn(Cc3nnn(C[C@H](O)c4cc5ccccc5s4)n3)c(=O)c2c1C(N)=O [Example 5]	23	11	< 23
Cc1c(C(N)=O)oc2ncn(Cc3nnn(C[C@H](O)c4cc5cc(Cl)ccc5o4)n3)c(=O)c12 [Example 6]	24	13	< 23
Cc1ccc([C@@H](O)Cn2nnc(Cn3cnc4oc(C)c(C(N)=O)c4c3=O)n2)cc1 [Example 1, 3-({2-[(2R)-2-hydroxy-2-(4-methylphenyl)ethyl]-2H-1,2,3,4-tetrazol-5-yl}methyl)-6-methyl-4-oxo-3H,4H-furo[2,3-d]pyrimidine-5-carboxamide]	4	24	< 23
Cc1c(C(N)=O)oc2ncn(Cc3nnn(C[C@H](O)c4cc5ccccc5s4)n3)c(=O)c12 [Example 2]	23	10	< 23
Cc1c(C(N)=O)oc2ncn(Cc3nnn(C[C@H](O)c4ccc(Cl)s4)n3)c(=O)c12 [Example 3]	5	10	< 23

The remaining lines, values ahead:

human Hepatocytes [1] [% Qh]	IC50 (human TRPA1 ion channel) [nM]	Assay B result (column head not printed in Table 4) [2] [%]	Structure (SMILES)
8	26	< 23	Cc1oc2ncn(Cc3nnn(C[C@H](O)c4cc5ccccc5o4)n3)c(=O)c2c1C(N)=O [Example 11]
<4	23	< 23	Cc1c(C(N)=O)oc2ncn(Cc3nnn(C[C@H](O)c4ccc(Cl)cc4)n3)c(=O)c12 [Example 10]
21	18	< 23	Cc1oc2ncn(Cc3nnn(C[C@H](O)c4cc5cc(F)ccc5o4)n3)c(=O)c2c1C(N)=O [Example 15]
16	23	< 23	Cc1oc2ncn(Cc3nnn(C[C@H](O)c4ccc(Cl)cc4)n3)c(=O)c2c1C(N)=O [Example 9]
22	49	26	Cc1oc2ncn(Cc3nnn(C[C@H](O)c4cc5cccc(F)c5o4)n3)c(=O)c2c1C(N)=O [Example 13]
16	29	< 23	Cc1oc2ncn(Cc3nnn(C[C@H](O)c4ccc(Br)cc4)n3)c(=O)c2c1C(N)=O [Example 12]
14	21	< 23	Cc1ccc([C@@H](O)Cn2nnc(Cn3cnc4oc(C(N)=O)c(C)c4c3=O)n2)cc1 [Example 8]
42	12	42	Cc1oc2ncn(Cc3nnn(C[C@H](O)c4cc5cc(Cl)ccc5o4)n3)c(=O)c2c1C(N)=O [Example 14]

Source: US11661427B2, “Tetrazole derivatives as TRPA1 inhibitors” (Boehringer Ingelheim International GmbH, priority 2020, dated 2023)
